Laboratory results: patent US4113858A, “Novel compounds, compositions and methods of their use” (St. Luke's Hospital, priority 1976, dated 1978)
Where two headings read alike, the source gives them in different places. Ends that are not written are not given here.

Experiments:
Guinea Pigs [1] = experiment: Delayed type skin hypersensitivity response (Table IV); type: in vivo; conditions: carrier CFA, IFA or saline; response dose related
Excerpt: Guinea pigs are sensitized (10 animals/group) with varying doses of the compound (V) (prepared according to Example 1, supra.) administered subcutaneously in Complete Freund's adjuvant, incomplete Freund's adjuvant and saline. At various times following this administration, the animals were skin tested with various doses of compound (V) in saline.
The extent of the DTH response is dose related. Compound (V) induces DTH response regardless of whether the carrier is Complete Freund's adjuvant (CFA), incomplete Freund's adjuvant (IFA) or physiological saline (saline). The values shown are the average skin response of 10 animals in each group. The numbers shown are measurements of the cross-sectional diameters of the erythematous area recorded at 24 hours following the skin test.

Guinea Pigs [2] = test system: Guinea Pigs
Guinea Pigs [3] = experiment: Non-encephalitogenic properties of Compound V, disease index (Table II); type: in vivo
Excerpt: A number of guinea pigs are divided into equal groups I, II, III, IV, V, VI and VII. Each of groups I, II, III and IV are given a single subcutaneous administration of the compound (V) (formula: H -- Phe -- Ser -- Trp -- Gln -- Lys )4 Gly -- OH) prepared according to Example 1. supra. The dose administered, in Complete Freund's adjuvant and the disease index (number of animals showing disease symptons/number tested) obtained after 30 and 120 days, respectfully, are given in Table II below. Groups, V, VI and VII serve as controls. Group V received a single administration of the myelin basic protein (BP), group VI received a single administration of peptide E (E), the encephalitogenic region derived from the encephalitogenic basic protein. Group VII received a single administration of Complete Freund's adjuvant alone.
The figures show the number of diseased guinea pigs per number tested. The disease index for experimental allergic encephalomyelitis (EAE) is reported in terms of clinical and histophathological criteria by day 30 following sensitization.

Guinea Pigs [4] = experiment: Specificity of delayed type skin hypersensitivity response (Table III); type: in vivo
Method: Guinea pigs are sensitized (10 animals/group) with 500 μg each of compound (V) (prepared according to Example 1, supra.), myelin basic protein (BP), the alpha -1 component of calf skin (α1 -- calf) and the alpha -1 component of guinea pig collagen (α1 -- g.p.), emulsified in complete Freund's adjuvant. At day 11 after sensitization, the animals were skin tested with various doses of the specific antigens dissolved in saline. Positive responses are indicated by erythema at the skin test site. A control group is administered saline.

Guinea Pigs [5] = experiment: Challenge with Compound V in Freund's complete adjuvant (Table VII, groups 1-3); type: in vivo; conditions: no treatment
[6] = Group 9: challenge 150 μg BP, 4.0 mg daily, started second day after onset of hind leg paralysis
[7] = Group 1: challenge 25 μg in FCA
[8] = Group 2: challenge 100 μg in FCA
[9] = Group 3: challenge 5,000 μg in FCA

## FSWQKFSWQKFSWQKFSWQKG [Compound V, H -- Phe -- Ser -- Trp -- Gln -- Lys]4 Gly -- OH]
Guinea Pigs [1]
  antigenicity / induction of delayed type hypersensitivity (DTH): antigenic and induces delayed type hypersensitivity (DTH)
Guinea Pigs [2]; Group 4: challenge 100 μg BP in FCA, 1 mg daily s.c. in FIA day 8 through day 17
  Clinical EAE: 2/4
Guinea Pigs [2]; Group 4: challenge 100 μg BP in FCA, 1 mg daily s.c. in FIA day 8 through day 17, listed as compound (V)
  Clinical EAE: significantly reduced the incidence of disease
Guinea Pigs [2]; Group 4: challenge 100 μg BP, 1 mg daily s.c. in FIA day 8 through day 17
  Reversal clinical EAE: 2/4
Guinea Pigs [2]; Group 4: challenge 100 μg BP, 1 mg daily s.c. in FIA day 8 through day 17, day 32
  Histological EAE: 2/4
Guinea Pigs [2]; Group 6: challenge 150 μg BP, 2.5 mg daily for 10 days from hind leg paralysis, day 32
  Histological EAE: 2/5
Guinea Pigs [2]; Group 6: challenge 150 μg BP, 2.5 mg daily for 10 days from hind leg paralysis, day 32, listed as compound (V)
  Histological EAE: 2 out of 5
Guinea Pigs [2]; Group 6: challenge 150 μg BP, 2.5 mg daily for 10 days from the day hind leg paralysis is observed
  Reversal clinical EAE: 5/5
Guinea Pigs [2]; Group 6: challenge 150 μg BP, 2.5 mg daily s.c. in FIA for 10 days from the day hind leg paralysis is observed
  Clinical EAE: 5/5
Guinea Pigs [2]; Group 9, after the second treatment
  guinea pigs that died without evidence of improvement: one of seven
Guinea Pigs [2]; [6]
  Clinical EAE: 7/7
  Histological EAE: 4/7
  Reversal clinical EAE: 6/7
Guinea Pigs [3]; Day 30, 0.005 mg antigen in CFA, single s.c.
  Disease Index: 0/10
Guinea Pigs [3]; Day 30, 0.025 mg antigen in CFA, single administration
  Disease Index: 0/15
Guinea Pigs [3]; Day 30, 0.100 mg antigen in CFA, single s.c.
  Disease Index: 0/20
Guinea Pigs [3]; Day 30, 0.500 mg antigen in CFA, single s.c., diseased/tested
  Disease Index: 0/10
Guinea Pigs [3]; Day 120, 0.100 mg antigen in CFA
  Disease Index: 0/10
Guinea Pigs [3]; Day 120, 0.500 mg antigen in CFA
  Disease Index: 0/10
Guinea Pigs [4]; in animals sensitized with compound V or BP
  delayed skin response elicited: positive delayed skin responses
Guinea Pigs [4]; in animals sensitized with the α1-calf or α1-g.p. component of skin collagen
  delayed skin response elicited: negative skin responses
Guinea Pigs [5]; [7]
  Clinical EAE: 0/15
  Histological EAE: 0/15
Guinea Pigs [5]; [8]
  Clinical EAE: 0/10
  Histological EAE: 0/15
Guinea Pigs [5]; [9]
  Clinical EAE: 0/10
  Histological EAE: 0/10
